We go through seven compounds from ChEMBL document CHEMBL4431294 (Medchemcomm, 2016).

≈ marks a conversion by molar mass, not a printed value.

For experiment [1], the system named is Pseudomonas aeruginosa. The experiment is described as follows: Antibacterial activity against Pseudomonas aeruginosa ATCC 27853 harboring APH(3'). Type of experiment: functional.
The test system of experiment [2] is Escherichia coli. The experiment is described as follows: Antibacterial activity against Escherichia coli ATCC 25922. Type of experiment: functional.
The subject of experiment [3] is Staphylococcus aureus. The experiment is described as follows: Antibacterial activity against Staphylococcus aureus ATCC 29213. Type of experiment: functional.
The subject of experiment [4] is Klebsiella pneumoniae. As to the kind of experiment: Antibacterial activity against Klebsiella pneumoniae ATCC 10031. Type of experiment: functional.
Experiment [5] relates to Staphylococcus aureus. The experiment is described as follows: Antibacterial activity against Staphylococcus aureus harboring ANT(4'). Type of experiment: functional.
Experiment [6] relates to Staphylococcus aureus. As to the kind of experiment: Antibacterial activity against Staphylococcus aureus. Type of experiment: functional.
The subject of experiment [7] is Bordetella bronchiseptica. As to the kind of experiment: Antibacterial activity against Bordetella bronchiseptica. Type of experiment: functional.
The test system of experiment [8] is Escherichia coli. The experiment is described as follows: Antibacterial activity against Escherichia coli. Type of experiment: functional.
Experiment [9] has as its system Mycobacterium tuberculosis. As to the kind of experiment: Antibacterial activity against Mycobacterium tuberculosis 607. Type of experiment: functional.
Experiment [10] deals with Bacillus subtilis. The experiment is described as follows: Antibacterial activity against Bacillus subtilis. Type of experiment: functional.
Experiment [11] has as its system Klebsiella pneumoniae. As to the kind of experiment: Antibacterial activity against Klebsiella pneumoniae. Type of experiment: functional.
The nature of experiment [12]: Antibacterial activity against Eberthella typhosa. Type of experiment: functional.
In experiment [13] the test system is Proteus vulgaris. As to the kind of experiment: Antibacterial activity against Proteus vulgaris. Type of experiment: functional.
Experiment [14] relates to Salmonella enterica subsp. enterica serovar Paratyphi B. The experiment is described as follows: Antibacterial activity against Salmonella schottmuelleri. Type of experiment: functional.
The nature of experiment [15]: Binding affinity to pre-microRNA-27a (unknwon origin) at 500 nM by spectrofluorometric method.
For experiment [16], the target named is Rev responsive element (RRE) RNA. As to the kind of experiment: Displacement of fluorescein-labeled RevF1 from HIV1 66-nucleotide RRE RNA by fluorescence anisotropy method. Type of experiment: nucleic-acid assay, Human immunodeficiency virus 1.
A short description of experiment [17]: Binding affinity to 22-mer TAT triplex DNA (unknown origin) at 8 uM by isothermal titration calorimetry.
For experiment [18], the system named is Pseudomonas aeruginosa. As to the kind of experiment: Antibacterial activity against Pseudomonas aeruginosa after 12 hrs. Type of experiment: functional, organism-based.

For the compound `NCC1=CC[C@@H](N)[C@@H](O[C@H]2[C@H](O[C@@H]3O[C@H](CO)[C@@H](O[C@H]4O[C@@H](CN)[C@@H](O)[C@H](O)[C@H]4N)[C@H]3O)[C@@H](O)[C@H](N)C[C@@H]2N)O1`, the MIC in [1], in experiment [2], in [3], in experiment [4] and in experiment [5] was 0.5 to 2 µg/mL (≈ 0.861 to 3.44 µM) each time.
On to `NCC1O[C@H](O[C@H]2[C@@H](O)[C@H](O[C@@H]3[C@@H](O)[C@H](N)C[C@H](N)[C@H]3O[C@H]3O[C@H](CN)[C@@H](O)[C@H](O)[C@H]3N)O[C@@H]2CO)[C@H](N)[C@@H](O)[C@@H]1O` (some centres not stated), for which the MIC came to 0.017 µg/mL (≈ 0.0277 µM) in experiment [6]; 0.5 µg/mL (≈ 0.813 µM) in [7]; 0.1 µg/mL (≈ 0.163 µM) in experiment [8]; 0.33 µg/mL (≈ 0.537 µM) in experiment [9]; 0.01 µg/mL (≈ 0.0163 µM) in experiment [10]; 0.05 µg/mL (≈ 0.0813 µM) in experiment [11]. Moreover, the minimal inhibitory concentration (MIC) turned out to be 0.033 µg/mL (≈ 0.0537 µM) in [12], 1 µg/mL (≈ 1.63 µM) in experiment [13] and 0.1 µg/mL (≈ 0.163 µM) in experiment [14].
Turning to `CN1CCN(c2ccc3nc(-c4ccc5[nH]c(-c6ccc(OCc7cn(CCCCC(=O)C(CCn8cc(OCc9cn(C[C@H]%10O[C@@H](O[C@@H]%11[C@@H](O)[C@H](N)C[C@H](N)[C@H]%11O[C@H]%11O[C@H](CN)[C@@H](O)[C@H](O)[C@H]%11N)[C@H](O)[C@@H]%10O[C@H]%10O[C@@H](CN)[C@@H](O)[C@H](O)[C@H]%10N)nn9)nn8)CCn8cc(OCc9cn(C[C@H]%10O[C@@H](O[C@@H]%11[C@@H](O)[C@H](N)C[C@H](N)[C@H]%11O[C@H]%11O[C@H](CN)[C@@H](O)[C@H](O)[C@H]%11N)[C@H](O)[C@@H]%10O[C@H]%10O[C@@H](CN)[C@@H](O)[C@H](O)[C@H]%10N)nn9)nn8)nn7)cc6)cc5c4)[nH]c3c2)CC1`, the Ka in [15] lay in the range of 1.2 to 7.4 ×10⁸ /M.
The compound `NCC1O[C@H](O[C@H]2[C@@H](O)[C@H](O[C@@H]3[C@@H](O)[C@H](N)C[C@H](N)[C@H]3O[C@H]3O[C@H](CN)[C@@H](O)[C@H](O)[C@H]3N)O[C@@H]2CNc2c3ccccc3nc3ccccc23)[C@H](N)[C@@H](O)[C@@H]1O` (some centres not stated) gave a Kd in [16] of no more than 10 nM.
Take `CC(=O)c1ccc2c(ccc3nc4c(NCCCNC(=O)NCCSC[C@H]5O[C@@H](O[C@@H]6[C@@H](O)[C@H](N)C[C@H](N)[C@H]6O[C@H]6O[C@H](CN)[C@@H](O)[C@H](O)[C@H]6N)[C@H](O)[C@@H]5O[C@H]5OC(CN)[C@@H](O)[C@H](O)[C@H]5N)nc5ccccc5c4nc32)c1` (some centres not stated): in experiment [17], the Kd was 27 nM.
For the compound `NC[C@H]1O[C@H](O[C@H]2[C@H](O)[C@@H](O)[C@H](N)C[C@@H]2N)[C@H](N)[C@@H](O)[C@@H]1O` [NEAMINE], the minimum inhibitory concentration (MIC) worked out at 0.13 µg/mL (≈ 0.403 µM) in experiment [6]; 3.3 µg/mL (≈ 10.2 µM) in experiment [7]; 1 µg/mL (≈ 3.1 µM) in experiment [8]; 5 µg/mL (≈ 15.5 µM) in [9]; 1 µg/mL (≈ 3.1 µM) in [10]; 0.5 µg/mL (≈ 1.55 µM) in experiment [11]. Also, the MIC in experiment [12] was 0.17 µg/mL (≈ 0.527 µM); in experiment [13] it was less than 0.33 µg/mL; in experiment [14], 1 µg/mL (≈ 3.1 µM).
In experiment [18], `NC[C@H]1O[C@H](O[C@H]2[C@H](NCCCCCCCCNC(=O)c3cc4c(cn3)[nH]c3ccccc34)[C@@H](O)[C@H](N)C[C@@H]2N)[C@H](N)[C@@H](O)C1O` (single isomer, unassigned) yielded an IC50 of 85.4 µg/mL (≈ 133 µM).
